{"source": "paper PMC9655037", "about": "“Alternation of Organ-Specific Exposure in LPS-Induced Pneumonia Mice after the Inhalation of Tetrandrine Is Governed by Metabolizing Enzyme Suppression and Lysosomal Trapping” (International Journal of Molecular Sciences, 2022)", "test": "Tissue distribution of TET after a single i.t. administration in normal and LPS-treated mice", "conditions": "for AUC(0-inf) / Cmax / MRT / Tmax / half-life / Kp / AUC(0-t): BALB/c, mouse; for AUC(0-inf) / Cmax / MRT / Tmax / half-life / AUC(0-t): inhaled or intranasal; for AUC(0-inf) / Cmax / MRT / Tmax / half-life / Kp / AUC(0-t) / Kp (AUC in tissue divided by AUC in blood): 15 mg/kg, 15 mg/kg i.t.; for Kp: other: intratracheal (i.t.), Kp (AUC in tissue divided by AUC in blood)", "experimental": "The different tissue distribution characteristics of TET in normal and pneumonia model mice via i.t. delivery were investigated. Thirty BALB/c mice were randomly divided into ten groups (n = 3 for each group). Five groups of mice were intratracheally injected with 15 mg/kg TET (dissolved in 22.5 mg/mL aspartic acid solution) as control groups, and the other five groups received i.t. administration of 15 mg/kg TET 6 h after i.t. injection of 50 μL LPS (5 mg/mL) as model groups. One control group and one model group were sacrificed simultaneously at the set time points of 2, 4, 8, 24, and 144 h after the administration of TET. After a cardiac puncture to obtain blood samples, tissue samples including heart, liver, spleen, lung, kidney, stomach, intestine, and brain were immediately harvested and all the tissues were thoroughly rinsed in ice physiological saline. All the tissue samples were weighed and stored with blood samples at −40 °C for LC-MS/MS analysis.\nPharmacokinetic parameters including t1/2, AUC(0-t), AUC(0-∞), and MRT were calculated using WinNonlin 7.0 (Pharsight, CA) by the non-compartmental model. Initial plasma concentration post i.v. (C0-i.v.) was extrapolated from the first three points of the logarithmic plasma concentration. The area under the blood concentration–time curve from t = 0 to infinity (AUCinf) was estimated using the linear trapezoidal rule. Blood clearance (CL) was calculated as the i.v. dose divided by AUCinf. Apparent steady-state distribution volume (Vss) was determined by the clearance multiplied by mean residence time. The distribution volume in the elimination phase (Vz) was determined by the clearance divided by the first-order rate constant of the terminal elimination phase (λz). The tissue partition ratio (Kp) of each tissue was calculated as Equation (1). (1) Kp=AUC(0−∞,tissue)/AUC(0−∞,plasma)", "note": "Values joined by “and” are separate entries in the source; they are usually repeats but may differ in a detail not shown here. Identical values can stand only once.", "data": [{"smiles": "COc1ccc2cc1Oc1ccc(cc1)C[C@H]1c3cc(c(OC)cc3CCN1C)Oc1c(OC)c(OC)cc3c1[C@H](C2)N(C)CC3", "note": "[TET, Tetrandrine]", "values": [{"measurement": "AUC(0-inf)", "setting": "kidney, normal mice", "value": "8160 ± 422", "unit": "µg·h/mL"}, {"measurement": "Cmax", "setting": "kidney, LPS-treated mice", "value": "112 ± 11.5", "unit": "µg/mL"}, {"measurement": "Cmax", "setting": "kidney, normal mice", "value": "107 ± 16.6", "unit": "µg/mL"}, {"measurement": "MRT", "setting": "kidney, LPS-treated mice", "value": "101 ± 30", "unit": "h"}, {"measurement": "MRT", "setting": "kidney, normal mice", "value": "80.1 ± 16.6", "unit": "h"}, {"measurement": "Tmax", "setting": "kidney, LPS-treated mice", "value": "5.33 ± 2.31", "unit": "h"}, {"measurement": "Tmax", "setting": "kidney, normal mice", "value": "3.33 ± 1.15", "unit": "h"}, {"measurement": "half-life", "setting": "kidney, t1/2, LPS-treated mice", "value": "77.8 ± 18.1", "unit": "h"}, {"measurement": "half-life", "setting": "kidney, t1/2, normal mice", "value": "63.4 ± 8.09", "unit": "h"}, {"measurement": "Kp", "setting": "kidney, LPS-treated mice, kidney", "value": "36.2 ± 3.83"}, {"measurement": "Kp", "setting": "kidney, normal mice, kidney", "value": "37.5 ± 5.7"}, {"measurement": "AUC(0-inf)", "setting": "liver, LPS-treated mice", "value": "7430 ± 632", "unit": "µg·h/mL"}, {"measurement": "AUC(0-inf)", "setting": "liver, normal mice", "value": "5480 ± 237", "unit": "µg·h/mL"}, {"measurement": "Cmax", "setting": "liver, LPS-treated mice", "value": "76.3 ± 7.02", "unit": "µg/mL"}, {"measurement": "Cmax", "setting": "liver, normal mice", "value": "83.3 ± 9.29", "unit": "µg/mL"}, {"measurement": "MRT", "setting": "liver, LPS-treated mice", "value": "82.1 ± 15.6", "unit": "h"}, {"measurement": "MRT", "setting": "liver, normal mice", "value": "53.9 ± 8.29", "unit": "h"}, {"measurement": "Tmax", "setting": "liver, LPS-treated mice", "value": "3.33 ± 1.15", "unit": "h"}, {"measurement": "Tmax", "setting": "liver, normal mice", "value": 4, "unit": "h"}, {"measurement": "half-life", "setting": "liver, t1/2, LPS-treated mice", "value": "69.3 ± 14.8", "unit": "h"}, {"measurement": "half-life", "setting": "liver, t1/2, normal mice", "value": "47.5 ± 5.47", "unit": "h"}, {"measurement": "Kp", "setting": "liver, LPS-treated mice, liver", "value": "27 ± 1.72"}, {"measurement": "Kp", "setting": "liver, normal mice, liver", "value": "28 ± 3.49"}, {"measurement": "AUC(0-t)", "setting": "lung, LPS-treated mice", "value": 10000, "unit": "µg·h/mL"}, {"measurement": "AUC(0-inf)", "setting": "lung, normal mice", "value": "5300 ± 721", "unit": "µg·h/mL"}, {"measurement": "Cmax", "setting": "lung, LPS-treated mice", "value": "≥ 96.2", "unit": "µg/mL"}, {"measurement": "Cmax", "setting": "lung, normal mice", "value": "60.3 ± 3.21", "unit": "µg/mL"}, {"measurement": "MRT", "setting": "lung, normal mice", "value": "78.3 ± 24.5", "unit": "h"}, {"measurement": "Tmax", "setting": "lung, LPS-treated mice", "value": "≥ 144", "unit": "h"}, {"measurement": "Tmax", "setting": "lung, normal mice", "value": "13.3 ± 9.24", "unit": "h"}, {"measurement": "half-life", "setting": "lung, t1/2, normal mice", "value": "65.1 ± 18.3", "unit": "h"}, {"measurement": "Kp", "setting": "lung, LPS-treated mice, lung", "value": "45.8 ± 6.49"}, {"measurement": "Kp", "setting": "lung, normal mice, lung", "value": "24.7 ± 6.06"}, {"measurement": "Kp", "setting": "muscle / blood, normal mice, muscle", "value": 2}, {"measurement": "AUC(0-inf)", "setting": "muscle, LPS-treated mice", "value": "674 ± 240", "unit": "µg·h/mL"}, {"measurement": "AUC(0-inf)", "setting": "muscle, normal mice", "value": "410 ± 80.1", "unit": "µg·h/mL"}, {"measurement": "Cmax", "setting": "muscle, LPS-treated mice", "value": "7.51 ± 2.11", "unit": "µg/mL"}, {"measurement": "Cmax", "setting": "muscle, normal mice", "value": "6.12 ± 0.44", "unit": "µg/mL"}, {"measurement": "MRT", "setting": "muscle, LPS-treated mice", "value": "101 ± 44.4", "unit": "h"}, {"measurement": "MRT", "setting": "muscle, normal mice", "value": "57.7 ± 7.81", "unit": "h"}, {"measurement": "Tmax", "setting": "muscle, LPS-treated mice", "value": "6.67 ± 2.31", "unit": "h"}, {"measurement": "Tmax", "setting": "muscle, normal mice", "value": "4 ± 3.16", "unit": "h"}, {"measurement": "half-life", "setting": "muscle, t1/2, LPS-treated mice", "value": "78.8 ± 31.3", "unit": "h"}, {"measurement": "half-life", "setting": "muscle, t1/2, normal mice", "value": "49.2 ± 4.06", "unit": "h"}, {"measurement": "Kp", "setting": "muscle, LPS-treated mice, muscle", "value": "2.2 ± 0.31"}, {"measurement": "AUC(0-inf)", "setting": "spleen, LPS-treated mice", "value": 16000, "unit": "µg·h/mL"}, {"measurement": "AUC(0-inf)", "setting": "spleen, normal mice", "value": 11300, "unit": "µg·h/mL"}, {"measurement": "Cmax", "setting": "spleen, LPS-treated mice", "value": "89.7 ± 10.7", "unit": "µg/mL"}, {"measurement": "Cmax", "setting": "spleen, normal mice", "value": "89.7 ± 7.09", "unit": "µg/mL"}, {"measurement": "MRT", "setting": "spleen, LPS-treated mice", "value": "157 ± 29.5", "unit": "h"}, {"measurement": "MRT", "setting": "spleen, normal mice", "value": "112 ± 34.7", "unit": "h"}, {"measurement": "Tmax", "setting": "spleen, LPS-treated mice", "value": "17.3 ± 11.5", "unit": "h"}, {"measurement": "Tmax", "setting": "spleen, normal mice", "value": "12 ± 10.6", "unit": "h"}, {"measurement": "half-life", "setting": "spleen, t1/2, LPS-treated mice", "value": "111 ± 18.3", "unit": "h"}, {"measurement": "half-life", "setting": "spleen, t1/2, normal mice", "value": "83.8 ± 22.7", "unit": "h"}, {"measurement": "Kp", "setting": "spleen, LPS-treated mice, spleen", "value": "43.3 ± 6.88"}, {"measurement": "Kp", "setting": "spleen, normal mice, spleen", "value": "45.7 ± 6.62"}, {"measurement": "Kp", "setting": "stomach / blood, LPS-treated mice, stomach", "value": 6.1}, {"measurement": "Kp", "setting": "stomach / blood, normal mice, stomach", "value": 5.3}, {"measurement": "AUC(0-t)", "setting": "stomach, LPS-treated mice", "value": "1340 ± 192", "unit": "µg·h/mL"}, {"measurement": "AUC(0-inf)", "setting": "stomach, LPS-treated mice", "value": "1640 ± 323", "unit": "µg·h/mL"}, {"measurement": "AUC(0-inf)", "setting": "stomach, normal mice", "value": "1120 ± 207", "unit": "µg·h/mL"}, {"measurement": "Cmax", "setting": "stomach, LPS-treated mice", "value": "27.2 ± 9.32", "unit": "µg/mL"}, {"measurement": "Cmax", "setting": "stomach, normal mice", "value": "22.3 ± 12.4", "unit": "µg/mL"}, {"measurement": "MRT", "setting": "stomach, LPS-treated mice", "value": "73.3 ± 17.7", "unit": "h"}, {"measurement": "MRT", "setting": "stomach, normal mice", "value": "70 ± 14", "unit": "h"}, {"measurement": "Tmax", "setting": "stomach, LPS-treated mice", "value": "3.33 ± 1.15", "unit": "h"}, {"measurement": "Tmax", "setting": "stomach, normal mice", "value": "4.67 ± 3.06", "unit": "h"}, {"measurement": "half-life", "setting": "stomach, t1/2, LPS-treated mice", "value": "61.4 ± 13", "unit": "h"}, {"measurement": "half-life", "setting": "stomach, t1/2, normal mice", "value": "64 ± 16.5", "unit": "h"}, {"measurement": "Kp (AUC in tissue divided by AUC in blood)", "setting": "LPS-treated mice, adipose", "value": "2.57 ± 0.62"}, {"measurement": "Kp (AUC in tissue divided by AUC in blood)", "setting": "LPS-treated mice, brain", "value": "0.59 ± 0.17"}, {"measurement": "Kp (AUC in tissue divided by AUC in blood)", "setting": "LPS-treated mice, heart", "value": "4.27 ± 1.59"}, {"measurement": "Kp (AUC in tissue divided by AUC in blood)", "setting": "LPS-treated mice, stomach", "value": "6.13 ± 0.87"}, {"measurement": "lung AUC ratio, acutely inflamed vs normal mice", "setting": "TET inhalation (i.t.) administration", "value": 2.32}, {"measurement": "increase in systemic blood exposure (blood AUC ratio), LPS group vs normal/saline group", "setting": "i.t. route", "value": "~ 1.25 fold and 1.25 fold"}, {"measurement": "Kp (AUC in tissue divided by AUC in blood)", "setting": "normal mice, adipose", "value": "2.39 ± 0.40"}, {"measurement": "Kp (AUC in tissue divided by AUC in blood)", "setting": "normal mice, brain", "value": "0.97 ± 0.39"}, {"measurement": "Kp (AUC in tissue divided by AUC in blood)", "setting": "normal mice, heart", "value": "5.05 ± 0.38"}, {"measurement": "Kp (AUC in tissue divided by AUC in blood)", "setting": "normal mice, intestine", "value": "8.35 ± 0.67"}, {"measurement": "Kp (AUC in tissue divided by AUC in blood)", "setting": "normal mice, muscle", "value": "2.04 ± 0.38"}, {"measurement": "Kp (AUC in tissue divided by AUC in blood)", "setting": "normal mice, stomach", "value": "5.29 ± 0.66"}]}]}
